From US20230364118A1, “RIBITOL TREATMENT” (priority 2020, published 2023)
Read-outs that look alike come from different tables or passages of the source.

How the values were obtained:
[1] = 28-day repeat-dose oral toxicokinetics; type: in vivo, CD-1 mouse; conditions: CD-1, mouse, plasma, po; for AUC(0-t): read-out: AUC0-24
Protocol: Toxicokinetics of ribitol was evaluated as part of the 28-day toxicology study in male and female CD-1 mice. […] Toxicokinetic animals were 12/sex in the control group and 48/sex/group in the treated groups. Blood samples were collected on Day 1 and Day 28 at pre-first dose, 0.5, 2, 4, 8 (prior to second dose), 8.5, 10, and 24 h.

[2] = Single intravenous dose PK; type: in vivo, Bama minipig; conditions: for CLs: Bama minipigs
Protocol: The PK of ribitol was studied in 2 male and 2 female Bama minipigs following escalating IV doses levels using the same animals with a 48 hour washout period at 10 mg/kg (Day 1), 30 mg/kg (Day 3) and 100 mg/kg (Day 5). On each dosing day, blood samples were collected serially up to 24 hours post dose.

[3] = both sexes, 1 g/kg, 1.0 g/kg/dose BID, Day 28, Mean of sexes
[4] = both sexes, 1.5 g/kg, 1.5 g/kg/dose BID, Day 1, Mean of sexes
[5] = both sexes, 1.5 g/kg, 1.5 g/kg/dose BID, Day 28, Mean of sexes
[6] = female, 0.5 g/kg, 0.5 g/kg/dose BID, Day 1, Female
[7] = female, 0.5 g/kg, 0.5 g/kg/dose BID, Day 28, Female
[8] = female, 1 g/kg, 1.0 g/kg/dose BID, Day 1, Female
[9] = female, 1 g/kg, 1.0 g/kg/dose BID, Day 28, Female
[10] = female, 1.5 g/kg, 1.5 g/kg/dose BID (3.0 g/kg/day, NOAEL), Day 28, Female
[11] = female, 1.5 g/kg, 1.5 g/kg/dose BID, Day 1, Female
[12] = male, 0.5 g/kg, 0.5 g/kg/dose BID, Day 1, Male
[13] = male, 0.5 g/kg, 0.5 g/kg/dose BID, Day 28, Male
[14] = male, 1 g/kg, 1.0 g/kg/dose BID, Day 1, Male
[15] = male, 1 g/kg, 1.0 g/kg/dose BID, Day 28, Male
[16] = male, 1.5 g/kg, 1.5 g/kg/dose BID (3.0 g/kg/day, NOAEL), Day 28, Male
[17] = male, 1.5 g/kg, 1.5 g/kg/dose BID, Day 1, Male

OC[C@@H](O)[C@@H](O)[C@@H](O)CO [ribitol, (2R,3s,4S)-Pentane-1,2,3,4,5-pentol]
Cmax [1, 3]: 245 µg/mL | AUC(0-t) [1, 3]: 806 µg·h/mL | Cmax [1, 4]: 384 µg/mL | AUC(0-t) [1, 4]: 1020 µg·h/mL | Cmax [1, 5]: 336 µg/mL | AUC(0-t) [1, 5]: 1090 µg·h/mL | Cmax [1, 6]: 157 µg/mL | Tmax [1, 6]: 510 min | AUC(0-t) [1, 6]: 322 µg·h/mL | Cmax [1, 7]: 141 µg/mL | Tmax [1, 7]: 510 min | AUC(0-t) [1, 7]: 393 µg·h/mL | Cmax [1, 8]: 227 µg/mL | Tmax [1, 8]: 510 min | AUC(0-t) [1, 8]: 520 µg·h/mL | Cmax [1, 9]: 252 µg/mL | Tmax [1, 9]: 30 min | AUC(0-t) [1, 9]: 794 µg·h/mL | Cmax [1, 10]: 294 µg/mL | AUC(0-t) [1, 10]: 839 µg·h/mL | Cmax [1, 11]: 334 µg/mL | Tmax [1, 11]: 510 min | AUC(0-t) [1, 11]: 1070 µg·h/mL | Tmax ([1]; female, 1.5 g/kg, 1.5 g/kg/dose BID, Day 28, Female): 510 min | Cmax [1, 12]: 124 µg/mL | Tmax [1, 12]: 30 min | AUC(0-t) [1, 12]: 351 µg·h/mL | Cmax [1, 13]: 138 µg/mL | Tmax [1, 13]: 30 min | AUC(0-t) [1, 13]: 450 µg·h/mL | Cmax [1, 14]: 286 µg/mL | Tmax [1, 14]: 510 min | AUC(0-t) [1, 14]: 559 µg·h/mL | Cmax [1, 15]: 238 µg/mL | Tmax [1, 15]: 510 min | AUC(0-t) [1, 15]: 818 µg·h/mL | Cmax [1, 16]: 377 µg/mL | AUC(0-t) [1, 16]: 1340 µg·h/mL | Cmax [1, 17]: 433 µg/mL | Tmax [1, 17]: 510 min | AUC(0-t) [1, 17]: 972 µg·h/mL | Tmax ([1]; male, 1.5 g/kg, 1.5 g/kg/dose BID, Day 28, Male): 510 min | AUC(0-inf) ([2]; Bama, minipig, plasma, IV 10 mg/kg, female): 17 µg·h/mL | half-life ([2]; Bama, minipig, plasma, IV 10 mg/kg, female, read-out: T1/2 (converted)): 33.4 min | Vd ([2]; Bama, minipig, plasma, IV 10 mg/kg, female, read-out: Vss): 0.417 L/kg | AUC(0-inf) ([2]; Bama, minipig, plasma, IV 10 mg/kg, male): 11.2 µg·h/mL | half-life ([2]; Bama, minipig, plasma, IV 10 mg/kg, male, read-out: T1/2 (converted)): 32.7 min | Vd ([2]; Bama, minipig, plasma, IV 10 mg/kg, male, read-out: Vss): 0.603 L/kg | AUC(0-inf) ([2]; Bama, minipig, plasma, IV 30 mg/kg, female): 57 µg·h/mL | half-life ([2]; Bama, minipig, plasma, IV 30 mg/kg, female, read-out: T1/2 (converted)): 44.9 min | Vd ([2]; Bama, minipig, plasma, IV 30 mg/kg, female, read-out: Vss): 0.582 L/kg | AUC(0-inf) ([2]; Bama, minipig, plasma, IV 30 mg/kg, male): 35.8 µg·h/mL | half-life ([2]; Bama, minipig, plasma, IV 30 mg/kg, male, read-out: T1/2 (converted)): 31.1 min | Vd ([2]; Bama, minipig, plasma, IV 30 mg/kg, male, read-out: Vss): 0.5 L/kg | AUC(0-inf) ([2]; Bama, minipig, plasma, IV 100 mg/kg, female): 210 µg·h/mL | half-life ([2]; Bama, minipig, plasma, IV 100 mg/kg, female, read-out: T1/2 (converted)): 59.6 min | Vd ([2]; Bama, minipig, plasma, IV 100 mg/kg, female, read-out: Vss): 0.434 L/kg | AUC(0-inf) ([2]; Bama, minipig, plasma, IV 100 mg/kg, male): 150 µg·h/mL | half-life ([2]; Bama, minipig, plasma, IV 100 mg/kg, male, read-out: T1/2 (converted)): 46.4 min | Vd ([2]; Bama, minipig, plasma, IV 100 mg/kg, male, read-out: Vss): 0.449 L/kg | CLs ([2]; IV 10 mg/kg, female): 10.1 mL/min/kg | CLs ([2]; IV 10 mg/kg, male): 15.1 mL/min/kg | half-life ([2]; both sexes, Bama, plasma, iv, minipig, range, read-out: T1/2 following the IV dose): 31.1 to 59.6 min | clearance ([2]; both sexes, Bama, plasma, minipig, IV 10-100 mg/kg, range, read-out: Systemic clearance (CLs)): 7.95 to 15.1 mL/min/kg | Vd ([2]; both sexes, Bama, plasma, minipig, IV, range, read-out: Volume of distribution at steady state (Vss)): 0.417 to 0.603 L/kg
